Measurements published in US9163018B2, “Method of treatment of age-related macular degeneration (AMD)” (Prana Biotechnology Limited, priority 2006, dated 2015).

Assays:
Aβ 1-42 = target: T1, Aβ 1-42 (Homo sapiens, UniProt P05067); test: Fluorometric H2O2 assay (inhibition of Abeta H2O2 production); format: biochemical; conditions: concentration required to inhibit 50% of Abeta H2O2 production; read-out: H2O2 IC50
T1 construct: The reaction solutions contained Aβ 1-42 at concentrations
Summary of the method: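 Copper-dependent Aβ H2O2 production measured fluorometrically with deacetylated dichlorofluorescein plus HRP in PBS, pH 7.4. Incubation 60 min at 37 C, test compound included in wells. H2O2 quantified against H2O2 standards.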

[1] = test system: M17 human neuroblastoma cells; test: Cytotoxicity, M17 human neuroblastoma cells; format: cell-based; conditions: for Cytotox (% viable) M17 cells at 1 μM: 1 μM test compound; for Cytotox (% viable) M17 cells at 10 μM: 10 μM test compound
Method: Assay 3. MTS Assay for Cell Viability
Cell viability is determined using the MTS assay. Culture medium is replaced with fresh neurobasal medium plus B27 supplements minus antioxidants. 1/10th volume MTS solution (Cell Titre 96 Aqueous One, Promega Corporation) and incubated at 37° C., 2 hrs. 200 microliter aliquots are measured with a spectrophotometer at 560 nm.

[2] = test system: dityrosine oligomerization; test: CuTy: inhibition of dityrosine oligomerization; format: biochemical; conditions: referenced to in-house standard (set as 100% inhibition)
[3] = target: T2, Abeta:Zn (25:50 μM) Synthetic Aggregations (Homo sapiens, UniProt P05067); test: Disaggregation of Abeta:Zn synthetic aggregates (ThT fluorescence); format: biochemical; conditions: for Disaggregation % Aggregate reduction at 5 μM: 5 μM test compound
T2 construct: PB Compound Mediated Dissolution of Aggregated Abeta 1-42; purchased Keck Laboratory, Yale University School of Medicine
Summary of the method: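 Abeta1-42 (25 μM) with ZnCl2 (50 μM) and ThT (50 μM) in PBS pH 6.6 was preaggregated 24 h at 37 degrees with rotation. Aggregates were then exposed to compound (final 1-50 μM, DMSO) for 2 h at 37 degrees. ThT fluorescence was read at ex 450/em 480 nm.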

[4] = Mice plasma concentration after oral dose; format: in vivo; conditions: 30 min to 4 h after single or repeat oral dose of 30 mg/kg
[5] = Toxicity, visual observations in mice; conditions: 30 mg/kg; duration and visual observations
[6] = test system: primary cortical neuronal cultured cells; test: Test compound cytotoxicity, MTS assay, primary cortical neuronal cultures; format: cell-based, mouse; conditions: for Cytotox (% viable) Neuronal cells at 1 μM: 1 μM test compound; for Cytotox (% viable) Neuronal cells at 10 μM: 10 μM test compound
Summary of the method: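 Primary cortical neurons were cultured five days in Neurobasal/B27, then exposed on day six to compounds (from 2.5 mM DMSO stocks) in medium minus antioxidants, in triplicate for 4 days at 37° C. Viability was measured by MTS, 2 h at 37° C, absorbance at 560 nm.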

T2 sequence (P05067 672-713 limits assumed): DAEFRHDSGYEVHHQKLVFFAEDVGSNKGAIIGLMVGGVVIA
T1 sequence (P05067 672-713 limits assumed): as above

| Structure (SMILES) | IC50 (Aβ 1-42) [nM] | Cytotox (% viable) M17 cells at 1 μM [1] [%] | Cytotox (% viable) M17 cells at 10 μM [1] [%] | CuTy % inhibition of dityrosine oligomerization [2] | Disaggregation % Aggregate reduction at 5 μM [3] [%] | EC50 ([3]; Abeta:Zn 25:50 μM aggregates) [µM] | Mice plasma concentration [4] | Toxicity at 30 mg/kg [5] | Cytotox (% viable) Neuronal cells at 1 μM [6] [%] | Cytotox (% viable) Neuronal cells at 10 μM [6] [%] |
| --- | --- | --- | --- | --- | --- | --- | --- | --- | --- | --- |
| CC(C)c1cnc2c(O)cccn2c1=O [PB 1135] | 270 | 99.7 | 45.6 | CuTy: 90% inhibition | 31 | > 20 | Up to 409 ng/ml ng/mL | 10 days, none |  |  |
| O=c1c2c(Cl)cc(Cl)c(O)c2ncn1Cc1cn2ccccc2n1 [PB 1239] | 480 | 109.2 | 98.2 | CuTy: 50% inhibition |  |  | Up to 98.3 ng/ mL ng/mL | 10 days, none |  |  |
| O=c1c2c(Cl)cc(Cl)c(O)c2ncn1Cc1cccnc1 [PB 1240] | 320 | 106.4 | 100.2 | CuTy: 60% inhibition |  |  | Up to 4023.4 ng/mL | 10 days, none |  |  |
| O=c1c2c(Cl)cc(Cl)c(O)c2ncn1Cc1ccncc1 [PB 1241] | 440 | 105.4 | 90.4 | CuTy: 80% inhibition |  |  | Up to 2181.1 ng/mL | 10 days, none | 98.4 | 90.9 |
| O=c1c2c(Cl)cc(Cl)c(O)c2ncn1-c1ccccn1 [PB 1242] | 280 | 102.7 | 102.6 | CuTy: 50% inhibition |  |  | Up to 144.2 ng/ mL ng/mL | 10 days, none |  |  |
| Cn1ccnc1Cn1cnc2c(O)c(Cl)cc(Cl)c2c1=O [PB 1243] | 380 | 112 | 122.3 | CuTy: 60% inhibition |  |  | Up to 13214.8 ng/mL | 10 days, none |  |  |
| O=c1c2c(Cl)cc(Cl)c(O)c2ncn1C1=CCC=C1 [PB 1244] | 1320 | 125.7 | 114.8 | CuTy: 10% inhibition |  |  | Up to 1477.4 ng/mL | 10 days, none |  |  |
| O=c1c2c(Cl)cc(Cl)c(O)c2ncn1-c1ccc2[nH]ncc2c1 [PB 1246] | 310 | 104.3 | 73.5 | CuTy: 120% inhibition |  |  | Up to 126 ng/ mL ng/mL | 10 days, none |  |  |
| O=C(O)Cn1cnc2c(O)c(Cl)cc(Cl)c2c1=O [PB 1249] | 490 | 105 | 100.7 | CuTy: 100% inhibition |  |  | Up to 4830.2 ng/ml ng/mL | 10 days, none |  |  |
| Br.CN1CCCC1Cn1cnc2c(O)c(Cl)cc(Cl)c2c1=O (stereo not drawn) [PB 1253] | 430 | 106.6 | 93.9 | CuTy: 70% inhibition |  |  | Up to 382.5 ng/ mL ng/mL | 10 days, none |  |  |
| O=c1c2c(Cl)cc(Cl)c(O)c2ncn1Cc1nccs1 [PB 1254] | 250 | 106.6 | 106 | CuTy: 90% inhibition |  |  | Up tp 441.4 ng/ mL ng/mL | 10 days, none |  |  |
| O=c1c2c(Cl)cc(Cl)c(O)c2ncn1Cc1nc2ccccc2s1 [PB 1257] | 690 | 111.1 | 80.9 | CuTy: 60% inhibition |  |  | Up to 166.1 ng/ mL ng/mL | 10 days, none |  |  |
| O=c1c2c(Cl)cc(Cl)c(O)c2ncn1CCNCc1ccncc1 [PB 1264] | 450 | 103 | 104.8 | CuTy: 100% inhibition |  |  | Up to 1639.8 ng/mL | 10 days, none |  |  |
| CN(C)Cc1nc2c(O)c(Cl)cc(Cl)c2c(=O)n1CC1CC1.Cl [PB 1267] | 370 | 94.4 | 74.5 | CuTy: 110% inhibition |  |  | Up to 1166.6 ng/ml ng/mL | 10 days, none |  |  |
| CCn1c(CN(C)C)nc2c(O)c(Cl)cc(Cl)c2c1=O.Cl [PB 1268] | 360 | 99.2 | 102.1 | CuTy: 110% inhibition |  |  | Up to 975.9 ng/ml ng/mL | 10 days, none |  |  |
| Br.CN(C)Cc1nc2c(O)c(Cl)cc(Cl)c2c(=O)n1C [PB 1269] | 280 | 109.3 | 114.7 | CuTy: 110% inhibition |  |  | Up to 492.1 ng/ml ng/mL | 10 days, 1/4 mild signs |  |  |
| O=c1c2c(Cl)cc(Cl)c(O)c2ncn1Nc1ccc(F)cc1F [PB-1100] |  | 108.1 | 80.5 | CuTy: 10% inhibition | 42 |  | Up to 1,130.6 ng/mL | 10 days, none | 100 | 92 |
